Results reported in paper PMC8619920, “New Polyesterified Ursane Derivatives from Leaves of Maesa membranacea and Their Cytotoxic Activity” (Molecules, 2021).

Columns and labels:
[1] = tested on: HaCaT human immortalized keratinocytes; assay: Cytotoxicity, LDH assay, HaCaT cells; type: cell-based; settings: Homo sapiens, HaCaT; 24 h treatment, 5–100 μg/mL
Protocol: (§1) Cytotoxic activity was tested on human cancer and normal cells, grouped in three panels, namely: prostate, skin and gastrointestinal. The prostate panel consisted of prostate cancer cell lines Du145 (ATCC HTB-81) and PC3 (ATCC CRL-1435), and prostate epithelial cells PNT-2 (ECACC 95012613). Melanoma cell lines A375 (ATCC CRL-1619) and HTB140 (ATCC Hs 294T) together with skin keratinocytes HaCaT (obtained as a kind gift of prof. Marta Michalik, Department of Cell Biology, Jagiellonian University, Kraków, Poland) were included into the skin panel. The gastrointestinal panel of cells comprised colon cancer cell lines Caco-2 (ATCC HTB-37) and HT29 (ATCC HTB-38). Du145 cells were grown in Modified Eagle’s Medium with low (1.0 g/L) glucose concentration, HT29, PC3 and PNT-2 cells in Dulbecco’s Modified Eagle’s Media: F12 HAM Nutrient Mixture, Caco-2 in Modified Eagle’s Medium with NEAA (no-essential amino acids) while melanoma cells and keratinocytes were maintained in Modified Eagle’s Medium with high (4.5 g/L) glucose concentration. The culture media (all supplied by Sigma-Aldrich Co.; St. Louis, MO, USA) contained antibiotics and 10% fetal bovine serum (FBS). All cultures were maintained at 37 °C, in a humidified, 5% CO2 containing, atmosphere.
(§2) The examined triterpenes were diluted in the culture media from freshly made stock solutions in MeOH (10 mg/mL) to the working concentrations (from 0 to 100 μg/mL).
(§3) Cell viability was determined as it was described previously. Cells suspended in the nutrient medium were transferred into 96-well microtiter plates (density 1.5 × 10^4 per well), and preincubated for 24 h (37 °C, 5% CO2). Then, the culture medium was replaced with the medium containing different concentrations of 1 or 2 (1–100 μg/mL). After 24 h of incubation, viability of the cells was determined using colorimetric lactate dehydrogenase (LDH) assay, in comparison to the controls to which corresponding aliquots of MeOH diluted with culture media were added. Cells grown in the medium without the tested compounds were used as control I (negative) and the positive control (control II) was obtained by incubation of the cells in the medium containing 1% Triton X-100. LDH released from the damaged cells into the cell culture medium was quantified by measuring the absorbance at 490 nm using Synergy II Biotek (BioTek Instruments, Winooski, VT, USA) microplate reader. Cytotoxicities of the examined compounds were calculated as follows: [(absorbance of the tested sample − absorbance of control I)/(absorbance of control II − absorbance of control I)] × 100. Results were means of three independent measurements (± SD). Doxorubicin (Ebewe Pharma GmbH., Unterach, Austria) was used as a reference cytostatic drug. The IC50 values were determined by plotting the percentage viability of the cells versus concentration and the adequate calculations made using AAT Bioquest website program (https://www.aatbio.com/tools/ic50-calculator, accessed on 29 October 2021).

[2] = Cytotoxicity, LDH assay, HaCaT cells; type: cell-based, human; settings: human, 24 h, mean ± SD of three, read-out: Cell viability HaCaT
Protocol: as §1, §2, §3

[3] = Cytotoxicity, LDH assay, DU145 cells; type: cell-based, human; settings: human, DU145 prostate carcinoma cells, 24 h, mean ± SD of three, read-out: Cell viability DU145
Protocol: as §1, §2, §3

[4] = tested on: PC3 human prostate adenocarcinoma cells; assay: Cytotoxicity, LDH assay, PC3 cells; type: cell-based
Protocol: as §1, §2, §3

[5] = Cytotoxicity, LDH assay, PC3 cells; type: cell-based, human; settings: human, PC3 prostate adenocarcinoma cells, 24 h, mean ± SD of three, read-out: Cell viability PC3
Protocol: as §1, §2, §3

[6] = tested on: HTB140 human melanoma cells; assay: Cytotoxicity, LDH assay, HTB140 cells; type: cell-based; settings: Homo sapiens; 24 h treatment, 5–100 μg/mL
Protocol: as §1, §2, §3

[7] = Cytotoxicity, LDH assay, HTB140 cells; type: cell-based, human; settings: human, HTB140 melanoma cells, 24 h, mean ± SD of three, read-out: Cell viability HTB140
Protocol: as §1, §2, §3

[8] = tested on: Caco-2 human colon adenocarcinoma cells; assay: Cytotoxicity, LDH assay, Caco-2 cells; type: cell-based; settings: Homo sapiens, Caco-2, 24 h, 24 h treatment, 5–100 μg/mL
Protocol: as §1, §2, §3

[9] = Cytotoxicity, LDH assay, Caco-2 cells; type: cell-based, human; settings: human, Caco-2, 24 h, mean ± SD of three, read-out: Cell viability Caco-2
Protocol: as §1, §2, §3

[10] = tested on: HT29 human colon adenocarcinoma cells; assay: Cytotoxicity, LDH assay, HT29 cells; type: cell-based; settings: Homo sapiens, HT-29; 24 h treatment, 5–100 μg/mL
Protocol: as §1, §2, §3

[11] = Cytotoxicity, LDH assay, HT29 cells; type: cell-based, human; settings: human, HT29 colon adenocarcinoma cells, 24 h, mean ± SD of three, read-out: Cell viability HT29
Protocol: as §1, §2, §3

[12] = Cytotoxicity, LDH assay, PNT-2 cells; type: cell-based, human; settings: human, 24 h, mean ± SD of three, read-out: Cell viability PNT-2
Protocol: as §1, §2, §3

[13] = tested on: PNT-2 human normal prostate epithelium cells; assay: Cytotoxicity, LDH assay, PNT-2 cells; type: cell-based; settings: Homo sapiens, PNT2; 24 h treatment, 5–100 μg/mL
Protocol: as §1, §2, §3

CC(=O)OC1CC2(C)C(C(OC(C)=O)CC3(C)C2C(O)C=C2C4C(C)C(C)(O)CC(OC(C)=O)C4(C)CCC23C)C(C)(C)C1O (stereo not drawn) [Compound 2, 2α,6β,22α-triacetoxy-urs-12-ene-3α,11α,20β-triol]
IC50 [1]: > 100 µg/mL
viability at 24 h, 100 μg/mL ([2]; HaCaT immortalized keratinocytes, 100 μg/mL): 54.3 ± 1.78%
viability at 24 h, 5 μg/mL ([2]; HaCaT keratinocytes, 5 μg/mL): 96.84 ± 0.6%
viability at 24 h, 10 μg/mL ([2]; HaCaT keratinocytes, 10 μg/mL): 94.5 ± 1.55%
viability at 24 h, 20 μg/mL ([2]; HaCaT keratinocytes, 20 μg/mL): 90.6 ± 0.66%
viability at 24 h, 30 μg/mL ([2]; HaCaT keratinocytes, 30 μg/mL): 82.8 ± 1.23%
viability at 24 h, 40 μg/mL ([2]; HaCaT keratinocytes, 40 μg/mL): 75.7 ± 1.76%
viability at 24 h, 50 μg/mL ([2]; HaCaT keratinocytes, 50 μg/mL): 61.8 ± 1.55%
viability at 24 h, 5 μg/mL ([3]; 5 μg/mL): 97.3 ± 0.27%
viability at 24 h, 10 μg/mL ([3]; 10 μg/mL): 94.54 ± 0.58%
viability at 24 h, 20 μg/mL ([3]; 20 μg/mL): 90.07 ± 0.71%
viability at 24 h, 30 μg/mL ([3]; 30 μg/mL): 83.2 ± 1.24%
viability at 24 h, 40 μg/mL ([3]; 40 μg/mL): 77.1 ± 1.63%
viability at 24 h, 50 μg/mL ([3]; 50 μg/mL): 68.6 ± 1.78%
viability at 24 h, 100 μg/mL ([3]; 100 μg/mL): 57.3 ± 1.9%
Cell viability PC3 ([4]; 100 μg/mL, 24 h, mean ± SD of three): > 47%
IC50 ([4]; Homo sapiens, PC-3, 24 h, 24 h treatment, 5–100 μg/mL): > 50 µg/mL
viability at 24 h, 5 μg/mL ([5]; 5 μg/mL): 96.6 ± 1.35%
viability at 24 h, 10 μg/mL ([5]; 10 μg/mL): 94.1 ± 1.24%
viability at 24 h, 20 μg/mL ([5]; 20 μg/mL): 87.9 ± 1.54%
viability at 24 h, 30 μg/mL ([5]; 30 μg/mL): 79 ± 1.1%
viability at 24 h, 40 μg/mL ([5]; 40 μg/mL): 70.3 ± 1.6%
viability at 24 h, 50 μg/mL ([5]; 50 μg/mL): 59 ± 1.81%
viability at 24 h, 100 μg/mL ([5]; 100 μg/mL): 47.1 ± 2.64%
IC50 [6]: > 100 µg/mL
viability at 24 h, 5 μg/mL ([7]; 5 μg/mL): 97.48 ± 0.79%
viability at 24 h, 20 μg/mL ([7]; 20 μg/mL): 96.4 ± 0.83%
viability at 24 h, 30 μg/mL ([7]; 30 μg/mL): 94.3 ± 1.45%
viability at 24 h, 40 μg/mL ([7]; 40 μg/mL): 93.7 ± 1.11%
viability at 24 h, 50 μg/mL ([7]; 50 μg/mL): 92 ± 1.64%
viability at 24 h, 100 μg/mL ([7]; 100 μg/mL): 89.5 ± 1.4%
IC50 [8]: > 50 µg/mL
viability at 24 h, 5 μg/mL ([9]; 5 μg/mL): 94.7 ± 1.42%
viability at 24 h, 10 μg/mL ([9]; 10 μg/mL): 88.4 ± 0.92%
viability at 24 h, 20 μg/mL ([9]; 20 μg/mL): 82 ± 1.69%
viability at 24 h, 30 μg/mL ([9]; 30 μg/mL): 74.7 ± 1.19%
viability at 24 h, 40 μg/mL ([9]; 40 μg/mL): 65.8 ± 1.25%
viability at 24 h, 50 μg/mL ([9]; 50 μg/mL): 61.1 ± 2.37%
viability at 24 h, 100 μg/mL ([9]; 100 μg/mL): 49.6 ± 1.49%
IC50 [10]: > 100 µg/mL
viability at 24 h, 5 μg/mL ([11]; 5 μg/mL): 95.76 ± 0.69%
viability at 24 h, 10 μg/mL ([11]; 10 μg/mL): 94.55 ± 0.84%
viability at 24 h, 20 μg/mL ([11]; 20 μg/mL): 90.05 ± 0.74%
viability at 24 h, 30 μg/mL ([11]; 30 μg/mL): 81.7 ± 1.56%
viability at 24 h, 40 μg/mL ([11]; 40 μg/mL): 74.8 ± 1.13%
viability at 24 h, 50 μg/mL ([11]; 50 μg/mL): 67.2 ± 1.25%
viability at 24 h, 100 μg/mL ([11]; 100 μg/mL): 56.9 ± 1.85%
viability at 24 h, 100 μg/mL ([12]; PNT-2 normal prostate epithelium cells, 100 μg/mL): 93.56 ± 0.5%
viability at 24 h, 5 μg/mL ([12]; PNT-2 prostate epithelial cells, 5 μg/mL): 97.49 ± 0.79%
viability at 24 h, 20 μg/mL ([12]; PNT-2 prostate epithelial cells, 20 μg/mL): 96.3 ± 1.04%
viability at 24 h, 30 μg/mL ([12]; PNT-2 prostate epithelial cells, 30 μg/mL): 95.64 ± 0.65%
viability at 24 h, 40 μg/mL ([12]; PNT-2 prostate epithelial cells, 40 μg/mL): 95.37 ± 0.75%
viability at 24 h, 50 μg/mL ([12]; PNT-2 prostate epithelial cells, 50 μg/mL): 94.56 ± 0.32%
IC50 [13]: > 100 µg/mL
